Measurements as given in patent US8273760B2, “Indolo[3,2-c]quinoline compounds” (Kaohsiung Medical University, priority 2008, dated 2012).

Key:
ACHN = assay: In vitro anticancer assay (NCI panel), ACHN; assay type: cell-based; details: Homo sapiens, renal cancer
Method: (§1) Selected compounds were evaluated in vitro against the NCI's full panel of 60 cancer cell lines derived from nine cancer cell types, including: leukemia (CCRF-CEM, HL-60 (TB), K-562, MOLT-4, RPMI-8226, and SR); non-small cell lung cancer (A549/ATCC, EKVX, HOP-62, HOP-92, NCI-H226, NCI-H23, NCI-H322M, and NCI-H522); colon cancer (COLO 205, HCC-2998, HCT-116, HCT-15, HT29, KM12, and SW-620); CNS cancer (SF-268, SF-295, SF-539, SNB-19, SNB-75, and U251); melanoma (LOX IMVI, MALME-3M, M14, SK-MEL-2, SK-MEL-28, SK-MEL-5, UACC-62, and UACC-257); ovarian cancer (IGROV1, OVCAR-3, OVCAR-4, OVCAR-5, OVCAR-8, and SK-OV-3); renal cancer (786-0, A498, ACHN, CAKI-1, RXF 393, SN12C, TK-10, and UO-31); prostate cancer (PC-3 and DU-145); and breast cancer (MCF7, MCF7/ADR-RES, MDA-MB-231/ATCC, HS 578T, MDA-MB-435, MDA-N, and T-47D). For each compound, dose-response curves for each cell line were measured with five different drug concentrations, and the concentration causing 50% cell growth inhibition (GI50) compared with the control was calculated. The mean GI50 values of each tested compound for all the 60 tumor cell lines were also calculated.

OVCAR-3 = assay: In vitro anticancer assay (NCI panel), OVCAR-3; assay type: cell-based; details: Homo sapiens; OVCAR-3, ovarian cancer
Method: as §1

MDA-MB-435 = assay: In vitro anticancer assay (NCI panel), MDA-MB-435; assay type: cell-based; details: Homo sapiens; MDA-MB-435, breast cancer
Method: as §1

OVCAR-5 = assay: In vitro anticancer assay (NCI panel), OVCAR-5; assay type: cell-based; details: Homo sapiens; OVCAR-5, ovarian cancer
Method: as §1

NCI-H460 = assay: In vitro anticancer assay (NCI panel), NCI-H460; assay type: cell-based; details: Homo sapiens; NCI-H460, non-small cell lung cancer
Method: as §1

SF-268 = assay: In vitro anticancer assay (NCI panel), SF-268; assay type: cell-based; details: Homo sapiens; SF-268, CNS cancer
Method: as §1

OVCAR-8 = assay: In vitro anticancer assay (NCI panel), OVCAR-8; assay type: cell-based; details: Homo sapiens; OVCAR-8, ovarian cancer
Method: as §1

HL-60 (TB) = assay: In vitro anticancer assay (NCI 60 cell line panel), HL-60 (TB); assay type: cell-based; details: Homo sapiens, leukemia
Method: as §1

A549/ATCC = assay: In vitro anticancer assay (NCI panel), A549/ATCC; assay type: cell-based; details: Homo sapiens, non-small cell lung cancer
Method: as §1

SR = assay: In vitro anticancer assay (NCI panel), SR; assay type: cell-based; details: Homo sapiens, leukemia
Method: as §1

PC-3 = assay: In vitro anticancer assay (NCI panel), PC-3; assay type: cell-based; details: Homo sapiens; PC-3, prostate cancer
Method: as §1

MDA-MB-231/ATCC = assay: In vitro anticancer assay (NCI panel), MDA-MB-231/ATCC; assay type: cell-based; details: Homo sapiens, breast cancer
Method: as §1

K-562 = assay: In vitro anticancer assay (NCI panel), K-562; assay type: cell-based; details: Homo sapiens, K562; K-562, leukemia
Method: as §1

telomerase = telomerase (Homo sapiens, UniProt O14746); assay: Telomeric Repeat Amplification Protocol (TRAP) assay, cell-free; details: 0.5 μg total cell extract from H1299 human lung cancer cells, FIG. 1
telomerase, sequence (O14746 whole entry): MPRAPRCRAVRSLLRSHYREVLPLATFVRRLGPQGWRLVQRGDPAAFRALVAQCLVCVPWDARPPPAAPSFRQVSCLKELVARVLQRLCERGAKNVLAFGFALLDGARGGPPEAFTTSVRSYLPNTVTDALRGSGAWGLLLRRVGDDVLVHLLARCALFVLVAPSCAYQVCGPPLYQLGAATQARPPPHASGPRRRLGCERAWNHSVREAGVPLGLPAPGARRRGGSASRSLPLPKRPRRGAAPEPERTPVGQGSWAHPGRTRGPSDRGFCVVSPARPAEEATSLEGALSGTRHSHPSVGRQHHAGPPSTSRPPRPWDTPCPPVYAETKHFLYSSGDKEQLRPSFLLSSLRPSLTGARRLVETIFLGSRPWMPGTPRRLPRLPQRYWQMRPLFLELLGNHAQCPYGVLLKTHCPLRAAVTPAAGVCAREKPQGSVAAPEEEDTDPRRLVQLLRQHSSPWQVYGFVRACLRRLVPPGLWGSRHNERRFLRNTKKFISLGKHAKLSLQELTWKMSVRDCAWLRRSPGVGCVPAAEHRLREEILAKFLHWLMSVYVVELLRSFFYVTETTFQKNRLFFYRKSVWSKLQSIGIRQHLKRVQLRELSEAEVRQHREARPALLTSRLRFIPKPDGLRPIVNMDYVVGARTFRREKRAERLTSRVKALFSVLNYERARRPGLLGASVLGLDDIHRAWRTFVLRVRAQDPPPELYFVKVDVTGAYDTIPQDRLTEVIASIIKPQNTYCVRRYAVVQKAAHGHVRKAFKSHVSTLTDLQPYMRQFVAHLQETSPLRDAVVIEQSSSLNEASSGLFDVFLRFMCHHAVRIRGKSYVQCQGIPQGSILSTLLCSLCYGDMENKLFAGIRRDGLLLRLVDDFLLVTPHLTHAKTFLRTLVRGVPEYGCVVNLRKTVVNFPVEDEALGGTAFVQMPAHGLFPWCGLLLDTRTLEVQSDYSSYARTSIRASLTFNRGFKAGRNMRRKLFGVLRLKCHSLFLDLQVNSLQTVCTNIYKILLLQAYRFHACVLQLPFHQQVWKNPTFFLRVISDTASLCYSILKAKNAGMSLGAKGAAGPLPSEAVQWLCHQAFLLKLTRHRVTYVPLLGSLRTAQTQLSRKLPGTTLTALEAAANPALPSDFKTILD

SNB-19 = assay: In vitro anticancer assay (NCI panel), SNB-19; assay type: cell-based; details: Homo sapiens; SNB-19, CNS cancer
Method: as §1

COLO 205 = assay: In vitro anticancer assay (NCI panel), COLO 205; assay type: cell-based; details: Homo sapiens; COLO 205, colon cancer
Method: as §1

UACC-62 = assay: In vitro anticancer assay (NCI panel), UACC-62; assay type: cell-based; details: Homo sapiens; UACC-62, melanoma
Method: as §1

[1] = test system: NCI's full panel of 60 cancer cell lines; assay: In vitro anticancer assay, all cell lines of the NCI panel; assay type: cell-based, human; details: Homo sapiens, mean values of over all cell lines tested; read-out: MG MID (mean GI50)
Method: as §1

HCT-116 = assay: In vitro anticancer assay (NCI panel), HCT-116; assay type: cell-based; details: Homo sapiens; HCT-116, colon cancer
Method: as §1

SN12C = assay: In vitro anticancer assay (NCI panel), SN12C; assay type: cell-based; details: Homo sapiens, renal cancer
Method: as §1

HOP-62 = assay: In vitro anticancer assay (NCI panel), HOP-62; assay type: cell-based; details: Homo sapiens; HOP-62, non-small cell lung cancer
Method: as §1

786-0 = assay: In vitro anticancer assay (NCI panel), 786-0; assay type: cell-based; details: Homo sapiens; 786-0, renal cancer
Method: as §1

SK-MEL-2 = assay: In vitro anticancer assay (NCI panel), SK-MEL-2; assay type: cell-based; details: Homo sapiens; SK-MEL-2, melanoma
Method: as §1

HT29 = assay: In vitro anticancer assay (NCI panel), HT29; assay type: cell-based; details: Homo sapiens, HT-29; HT29, colon cancer
Method: as §1

MCF7 = assay: In vitro anticancer assay (NCI panel), MCF7; assay type: cell-based; details: Homo sapiens; MCF7, breast cancer
Method: as §1

DU-145 = assay: In vitro anticancer assay (NCI panel), DU-145; assay type: cell-based; details: Homo sapiens; DU-145, prostate cancer
Method: as §1

LOX IMVI = assay: In vitro anticancer assay (NCI panel), LOX IMVI; assay type: cell-based; details: Homo sapiens, melanoma
Method: as §1

SF-295 = assay: In vitro anticancer assay (NCI panel), SF-295; assay type: cell-based; details: Homo sapiens; SF-295, CNS cancer
Method: as §1

[2] = test system: human leukemia HL-60 cells; details: previous studies, read-out: GI50 (50% cell growth inhibition); cited from earlier work

Row | SMILES | GI50 (ACHN) [µM] | GI50 (OVCAR-3) [µM] | GI50 (MDA-MB-435) [µM] | GI50 (OVCAR-5) [µM] | GI50 (NCI-H460) [µM] | GI50 (SF-268) [µM] | GI50 (OVCAR-8) [µM] | GI50 (HL-60 (TB)) [µM] | GI50 (A549/ATCC) [µM] | GI50 (SR) [µM] | GI50 (MDA-MB-231/ATCC) [µM] | GI50 (K-562) [µM] | GI50 (SNB-19) [µM] | GI50 (COLO 205) [µM] | GI50 (UACC-62) [µM] | GI50 [1] [µM] | GI50 (HCT-116) [µM] | GI50 (SN12C) [µM] | GI50 (HOP-62) [µM] | GI50 (786-0) [µM] | other results
1 | Cl.c1ccc2c(c1)nc(NCCCNCCCNc1nc3ccccc3c3[nH]c4ccccc4c13)c1c3ccccc3[nH]c21 [Compound 8a, N,N-bis-[3-(11H-indolo[3,2-c]quinolin-6-yl)aminopropyl]amine hydrochloride] | 0.06 | 0.52 | 0.85 | 0.22 | 0.04 | 0.03 | 0.04 | 0.04 | 0.06 | 0.03 | 0.18 | 0.04 | 0.07 | 0.18 | 0.22 | 0.15 | 0.17 | 0.03 | 0.05 | 0.07 | GI50 (PC-3): 0.36 µM; concentration that completely inhibited telomerase activity (telomerase): approximately 0.02 nM; GI50 (SK-MEL-2): 0.55 µM; GI50 (HT29): 0.05 µM; GI50 (MCF7): 0.01 µM; GI50 (DU-145): 0.13 µM; melting point: 107 to 108 °C; GI50 (LOX IMVI): 0.07 µM; GI50 (SF-295): 0.1 µM
2 | Cl.OCCNCCNc1nc2ccccc2c2[nH]c3ccccc3c12 [Compound 9, 2-[2-(11H-Indolo[3,2-c]quinolin-6-ylamino)ethylamino]ethanol hydrochloride] | 0.38 | 1.31 | 1.46 | 0.58 | 1.46 | 1.36 | 0.81 | 1.31 | 0.98 | 0.9 | 1.24 | 1.55 | 2.1 | 1.76 | 2 | 1.07 | 0.19 | 1.26 | 0.37 | 0.34 | GI50 (PC-3): 0.88 µM; GI50 (SK-MEL-2): 2.25 µM; GI50 (HT29): 0.56 µM; GI50 (MCF7): 1.24 µM; GI50 (DU-145): 0.74 µM; melting point: 276 °C; GI50 (LOX IMVI): 0.44 µM; GI50 (SF-295): 1.41 µM
3 | CN(C)CCNc1nc2ccccc2c2[nH]c3ccccc3c12 [IQDMA, N′-(11H-indolo[3,2-c]quinolin-6-yl)-N,N-dimethyl-ethane-1,2-diamine] |  |  |  |  |  |  |  |  |  |  |  |  |  |  |  |  |  |  |  |  | GI50 [2]: 1.98 µM
4 | Cl.OCCNc1nc2ccccc2c2[nH]c3ccccc3c12 [Compound 7d, 2-(11H-indolo[3,2-c]quinolin-6-ylamino)ethanol hydrochloride] | 0.16 | 0.47 | 0.41 | 1.03 | 0.29 | 0.56 | 0.36 | 0.56 | 0.41 | 0.21 | 0.43 | 0.46 | 0.41 | 0.31 | 1.15 | 0.46 | 0.23 | 0.22 | 0.58 | 0.45 | GI50 (SK-MEL-2): 0.57 µM; GI50 (HT29): 0.28 µM; GI50 (MCF7): 0.37 µM; GI50 (DU-145): 0.69 µM; melting point: 344 to 345 °C; GI50 (LOX IMVI): 0.36 µM; GI50 (SF-295): 0.45 µM
